Where two headings read alike, the source gives them in different places.
Key:
[1] = test system: c-Src 3T3 cells; assay: BrdU cell growth inhibition, c-Src 3T3; type: cell-based, mouse; details: for activity at 0.1 µM / activity at 1 µM / activity at 10 µM: NIH3T3, read-out: c-Src 3T3 Growth, % of Control Mean, n = 3; for activity at 0.1 µM: 100 nM; for GI50: c-Src 3T3 (c-Src527F/NIH3T3) cells
Method: (§1) The GI50s for several of the compounds of the invention were assayed as described herein.
The cells were routinely cultured in DMEM supplemented with Fetal Bovine Serum (2.0% v/V), L-glutamine (2 mM) and Sodium Pyruvate (1 mM).
(§2) In the BrdU Assay for cell growth inhibition, quantitation of cell proliferation was based on the measurement of BrdU incorporation during DNA synthesis. The Cell Proliferation ELISA BrdU assay kit (colorimetric) was obtained from Roche Applied Science and performed as per vendor instructions.
(§3) The growth inhibition (GI) is determined from the formula GI=(T0−Tn×100/T0−CONn) where T0 is the BrdU growth of untreated cells at time “0”, Tn is the BrdU growth of treated cells at day “n” and CONn is the control BrdU growth of control cells at day “n”. The GI50 was extrapolated and the data plotted using XL-Fit 4.0 software.
(§4) For 96 well culture plate experiments, c-Src 3T3 medium was supplemented with 10 mM HEPES buffer. HT-29 cells were seeded in standard tissue culture 96-well plates and c-Src 3T3 cells were seeded in 96-well plates coated with Poly-D-lysine (BIOCOAT™). To increase CO2 diffusion, c-Src 3T3 96-well plates were incubated with their lids raised by ˜2 mm using sterile rubber caps.
(§5) Samples were reconstituted in DMSO at 20 mM and intermediate dilutions made using DMEM containing 10% FBS. […] Plates were assayed for BrdU and the data analyzed as above for GI50.
(§6) All compounds were initially prepared as 20 mM DMSO stock solutions and then diluted into buffer for the in vitro tumor growth assays. NG means no cell growth beyond the control and T means the number of cells in the drug treated wells was less than in the control (i.e. net cell loss).

[2] = test system: HT29 cell line; assay: BrdU cell growth inhibition, HT29; type: cell-based, human; details: for activity at 0.05 µM / activity at 0.5 µM / activity at 5 µM: HT-29, read-out: HT-29 Growth, % of Control Mean, n = 3; for activity at 0.05 µM: 50 nM; for activity at 0.5 µM: 500 nM
Method: as §1
The HT29 cell line is a NCI standard human colon carcinoma cell line.
as §2, §3, §4, §5, §6
Growth Inhibition. […] T1 values≤T0 values were designated as T, cytotoxicity.

[3] = Homo sapiens, HT-29, HT29 (Colon) cells, read-out: GI50

Row | SMILES | activity at 0.1 µM ([1]; Mus musculus) [%] | activity at 1 µM ([1]; Mus musculus) [%] | activity at 10 µM ([1]; Mus musculus) [%] | GI50 ([1]; Mus musculus, read-out: GI50) [µM] | GI50 [2, 3] [µM] | activity at 0.05 µM ([2]; Homo sapiens) [%] | activity at 0.5 µM ([2]; Homo sapiens) [%] | activity at 5 µM ([2]; Homo sapiens) [%] | GI50 ([2]; HT29 (Colon) cells) | GI50 [1]
1 | O=C(Cc1ccc(-c2ccc(N3CCCCC3)cc2)cn1)NCc1cccc(F)c1 [KX2-372] | < 0 | < 0 | < 0 | 0.058 | 0.067 | < 0 | < 0 | < 0 | – | –
2 | CN1CCN(Cc2ccc(-c3ccc(CC(=O)NCc4cccc(F)c4)nc3)cc2)CC1 [KX2-376] | < 0 | < 0 | < 0 | > 1.6 | > 0.4 | 96 | 93 | < 0 | – | –
3 | CC(C)COc1cc(F)cc(CNC(=O)Cc2ccc(-c3ccc(N4CCCCC4)cc3)cn2)c1 [KX2-371] | 75 | 72 | 16 | – | – | 98 | 33 | 16 | – | –
4 | CCOc1ccccc1-c1ccc(CC(=O)NCc2cc(F)cc(OCC(C)C)c2)nc1 [KX2-369] | 100 | 101 | < 0 | – | – | 87 | 72 | < 0 | – | –
5 | O=C(Cc1ccc(-c2cccnc2)cc1)NCc1cccc(F)c1 [KX1-316] | 88.2 | < 0 | < 0 | > 0.2 | – | 77.8 | 45.1 | < 0 | – | –
6 | O=C(Cc1ccc(-c2ccccc2)nc1)NCc1cccc(F)c1 [KX1-314, N (3-fluorobenzyl)-2-phenylpyridine-5-acetamide] | 93.6 | 88.4 | 39.3 | – | – | 53.2 | 83.7 | 14.4 | – | –
7 | O=C(Cc1cccc(-c2ccccc2)c1)NCc1cccc(F)c1 [KX1-307] | 65.7 | 45.3 | 4.2 | – | – | 85.9 | 93.8 | 39.4 | – | –
8 | O=C(Cc1ccc(-c2cccc(Cl)c2)nc1)NCc1cccc(F)c1 [KX1-317, 2-[6-(3-Chloro-phenyl)-pyridin-3-yl]-N-(3-fluoro-benzyl)-acetamide] | 94.2 | 85.6 | < 0 | – | – | 83.5 | 64 | < 0 | – | –
9 | CCOc1ccc(-c2ccc(CC(=O)NCc3cccc(F)c3)nc2)c(OCCN2CCN(C)CC2)c1 [KX2-384] | – | – | – | 1.43 | – | – | – | – | inactive | –
10 | O=C(Cc1ccc(-c2ccccc2)c[n+]1[O-])NCc1cccc(F)c1 [KX1-329 N-oxide] | – | – | – | – | – | – | – | – | inactive (c-Src 3T3); inactive (HT-29) | inactive (c-Src 3T3); inactive (HT-29)
11 | O=C(Cc1ccc(-c2ccc(OCCN3CCOCC3)cc2)cn1)NCc1cccc(F)c1 [KX2-377] | < 0 | < 0 | < 0 | 0.118 | 0.111 | < 0 | < 0 | < 0 | – | –
12 | O=C(Cc1ccc(-c2ccc(OCCN3CCOCC3)cc2F)cn1)NCc1cccc(F)c1 [KX2-392] | – | – | – | 0.013 | 0.021 | – | – | – | – | –
13 | CCOc1cccc(-c2ccc(CC(=O)NCc3cccc(F)c3)cn2)c1 [KX1-322, 2-[6-(3-Ethoxy-phenyl)-pyridin-3-yl]-N-(3-fluoro-benzyl)-acetamide] | 94.6 | < 0 | < 0 | 3.73 | – | 114 | 87.2 | < 0 | – | –
14 | CCOc1ccccc1-c1ccc(CC(=O)NCc2cccc(F)c2)cn1 [KX1-324, 2-[6-(2-Ethoxy-phenyl)-pyridin-3-yl]-N-(3-fluoro-benzyl)-acetamide] | 96 | 90 | < 0 | – | – | 91 | 95.7 | 0 | – | –
15 | CCOc1ccc(-c2ccc(CC(=O)NCc3cccc(F)c3)cn2)cc1 [KX1-325, 2-[6-(4-Ethoxy-phenyl)-pyridin-3-yl]-N-(3-fluoro-benzyl)-acetamide] | 97.6 | 54.2 | < 0 | 0.207 | 0.215 | 85 | < 0 | < 0 | – | –
16 | O=C(Cc1ccc(-c2ccncc2)cc1)NCc1cccc(F)c1 [KX1-327] | 81.3 | < 0 | < 0 | > 0.2 | 0.68 | 31.6 | < 0 | < 0 | – | –
17 | CCOc1ccc(-c2ccc(CC(=O)NCc3cc(F)cc(OCCN4CCCCC4)c3)nc2)cc1 [KX2-380] | 124 | 119 | < 0 | – | – | 100 | 50 | < 0 | – | –
18 | O=C(Cc1ccc(-c2ccc(F)cc2)nc1)NCc1cccc(F)c1 [KX1-320, N-(3-Fluoro-benzyl)-2-[6-(4-fluoro-phenyl)-pyridin-3-yl]-acetamide] | 90.4 | 86.5 | 73.1 | – | – | 111 | 132 | 86.2 | – | –
19 | CC(C)COc1cc(F)cc(CNC(=O)Cc2ccc(-c3ccc(CN4CCOCC4)cc3)cn2)c1 [KX2-363] | 92 | 70 | 100 | – | – | 92 | 67 | < 0 | – | –
20 | O=C(Cc1ccc(-c2ccc(C(=O)O)cc2)nc1)NCc1cccc(F)c1 [KX1-323, 4-{5-[(3-Fluoro-benzylcarbamoyl)-methyl]-pyridin-2-yl}-benzoic acid] | 96.6 | 97.3 | 93.2 | – | – | 106 | 107 | 60.8 | – | –
21 | CCOc1ccc(-c2ccc(CC(=O)NCc3cccc(F)c3)nc2)c(OCCN2CCCCC2)c1 [KX2-389] | – | – | – | – | – | – | – | – | inactive | Inactive
22 | CN1CCN(CCCOc2ccc(-c3ccc(CC(=O)NCc4cccc(F)c4)nc3)cc2)CC1 [KX2-390] | – | – | – | 0.797 | 0.868 | – | – | – | – | –
23 | CC(C)COc1cc(F)cc(CNC(=O)Cc2ccc(-c3ccc(CN4CCCCC4)cc3)cn2)c1 [KX2-366] | 103 | 83 | < 0 | – | – | 89 | 54 | < 0 | – | –
24 | CCOc1ccc(-c2ccc(CC(=O)NCc3cccc(F)c3)nc2)cc1 [KX2-359] | < 0 | < 0 | < 0 | 0.034 | 0.045 | < 0 | < 0 | < 0 | – | –
25 | O=C(Cc1ccc(-c2cccc(F)c2)cc1)NCc1cccc(F)c1 [KX1-310, N-(3-fluorobenzyl)-4-(3-fluorophenyl)phenylacetamide] | 102 | < 0 | < 0 | – | – | 93.3 | < 0 | < 0 | – | –
26 | O=C(Cc1ccc(-c2ccccc2F)cc1)NCc1cccc(F)c1 [KX1-309] | < 0 | < 0 | < 0 | – | – | 29.5 | < 0 | < 0 | – | –
27 | COc1cc(Nc2c(C#N)cnc3cc(OCCCN4CCN(C)CC4)c(OC)cc23)c(Cl)cc1Cl [SKI-606] | – | – | – | 0.208 | 0.173 | – | – | – | – | –
28 | CCOc1ccc(-c2ccc(CC(=O)NCc3cc(F)cc(N4CCOCC4)c3)nc2)cc1 [KX2-382] | 117 | 114 | 103 | – | – | 80 | 97 | 50 | – | –
29 | CCc1ccc(-c2ccc(CC(=O)NCc3cccc(F)c3)cn2)cc1 [KX1-318, 2-[6-(4-Ethyl-phenyl)-pyridin-3-yl]-N-(3-fluoro-benzyl)-acetamide] | 91.4 | 71 | < 0 | – | – | 165 | 93.2 | < 0 | – | –

Reference: patent US10196357B2, “Biaryl compositions and methods for modulating a kinase cascade” (Athenex, Inc., priority 2007, dated 2019)
